What was measured:
Assay in all cases: relative viability (nuclei count vs DMSO), 5 days (fraction); higher = more cells survive
Vemurafenib + Lapatinib = compound: CCCS(=O)(=O)Nc1ccc(F)c(C(=O)c2c[nH]c3ncc(-c4ccc(Cl)cc4)cc23)c1F [Vemurafenib] + CS(=O)(=O)CCNCc1ccc(-c2ccc3ncnc(Nc4ccc(OCc5cccc(F)c5)c(Cl)c4)c3c2)o1 [Lapatinib] (partner 2 µM)
Procedure, shortened: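 Relative viability equals treated-well nuclei counts divided by vehicle-well nuclei counts. Counts came from 4× images of lung cancer cell lines grown in 1536-well plates for 5 days after pin-tool dosing on the day after seeding. Dosing used one drug alone or a fixed anchor-drug dose plus five library-drug doses (not always all listed) in √10 steps, and values are medians of duplicate plates.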

Alpelisib = compound: Cc1nc(NC(=O)N2CCC[C@H]2C(N)=O)sc1-c1ccnc(C(C)(C)C(F)(F)F)c1 [Alpelisib]
Procedure, shortened: (§1)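 Following overnight incubation at 37 °C, lung cancer cell lines in 1536-well plates were pinned with five library-drug doses (not always all listed) in √10 steps on vehicle-anchored plates. The cells then spent 5 days without medium change before a combined fix, permeabilisation and Hoechst stain, 4× imaging and MetaXpress nuclear counts. Viability is the treated-to-vehicle ratio of nuclei, taken as the median across plates. Only plates with control CV below 25% and at least one doubling passed.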

OSI-027 = compound: COc1cccc2cc(-c3nc([C@H]4CC[C@H](C(=O)O)CC4)n4ncnc(N)c34)[nH]c12 [OSI-027]
Procedure, shortened: as §1

Vemurafenib = compound: CCCS(=O)(=O)Nc1ccc(F)c(C(=O)c2c[nH]c3ncc(-c4ccc(Cl)cc4)cc23)c1F [Vemurafenib]
Procedure, shortened: as §1

| Cell Line | relative viability (Vemurafenib + Lapatinib; first compound 0.03162 µM) | relative viability (Vemurafenib + Lapatinib; first compound 0.1 µM) | relative viability (Vemurafenib + Lapatinib; first compound 0.3162 µM) | relative viability (Vemurafenib + Lapatinib; first compound 1 µM) | relative viability (Alpelisib; 0.04 µM) | relative viability (Alpelisib; 0.1265 µM) | relative viability (Alpelisib; 0.4 µM) | relative viability (Alpelisib; 1.265 µM) | relative viability (Alpelisib; 2 µM, anchor plate) | relative viability (Alpelisib; 4 µM) | relative viability (OSI-027; 0.01 µM) | relative viability (OSI-027; 0.03162 µM) | relative viability (OSI-027; 0.1 µM) | relative viability (OSI-027; 0.3162 µM) | relative viability (OSI-027; 0.5 µM, anchor plate) | relative viability (OSI-027; 1 µM) | relative viability (Vemurafenib; 0.03162 µM) | relative viability (Vemurafenib; 0.1 µM) | relative viability (Vemurafenib; 0.3162 µM) | relative viability (Vemurafenib; 1 µM) |
| --- | --- | --- | --- | --- | --- | --- | --- | --- | --- | --- | --- | --- | --- | --- | --- | --- | --- | --- | --- | --- |
| NCI-H23 | 0.87 | 1.16 | 0.749 | 1.36 | 0.94 | 0.798 | 0.913 | 0.739 | 0.78 | 0.706 | 0.906 | 0.96 | 0.808 | 0.784 | 0.612 | 0.54 | 0.918 | 0.967 | 0.838 | 0.871 |
| NCI-H1650 | 0.7 | – | 0.699 | 0.738 | 0.935 | 0.801 | 1.06 | 0.814 | – | 0.815 | 0.937 | 0.843 | 0.912 | 0.893 | 0.689 | 0.421 | 0.774 | 0.701 | 0.924 | 1.01 |
| NCI-H1734 | 0.872 | 1.04 | 0.903 | 0.993 | 0.917 | 0.857 | 1 | 0.644 | 0.674 | 0.508 | 0.962 | 0.991 | 0.826 | 0.785 | 0.615 | 0.684 | 0.967 | 1.02 | 0.779 | 0.875 |
| HCC-366 | 1.09 | 1.07 | – | 1.05 | 0.935 | 1 | 1.09 | 0.947 | 0.443 | 0.627 | 1.05 | 0.962 | 1.08 | 1.05 | 0.911 | 0.803 | 1.01 | 0.969 | – | 1.09 |
| LXF-289 | 0.892 | 0.883 | 0.87 | 0.965 | 0.988 | 1.11 | 1.05 | 1 | 1.06 | 0.961 | 1.02 | 0.971 | 1.04 | 0.981 | 0.817 | 0.881 | 0.967 | 0.95 | 1 | 1.06 |
| NCI-H838 | 0.877 | 1.05 | – | 1.12 | 0.863 | 0.921 | 0.933 | 0.706 | 1.03 | 0.689 | 0.93 | 0.898 | 0.782 | 0.607 | 0.404 | 0.408 | 0.924 | 0.988 | – | 1.03 |
| NCI-H1993 | 0.843 | – | 0.8 | 0.793 | 0.862 | 0.86 | 0.961 | 0.698 | 0.707 | 0.609 | 0.803 | 0.817 | 0.704 | 0.611 | 0.558 | 0.438 | 0.844 | – | 0.993 | 0.974 |

— the supplement of paper PMC10307832
